Measured values: US20020137929A1, “1 - (3-heterocyclylphenyl) isothiourea, -isourea, -guanidine and -amidine herbicidal agents” (Intellectual Property Department, BASF Aktiengesellschaft, priority 1998, published 2002)

Assays:
AMBEL (Ragweed, Common) = assay: Postemergence herbicidal evaluation; format: in vivo, Ambrosia artemisifolia; conditions: postemergence
Procedure, shortened: (§1)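 Young plants, roughly two weeks from seeding, receive the active ingredient as a sprayed dispersion (acetone/water 50/50, 0.5% TWEEN 20) at 40 psi. Doses span about 0.0156 to 0.500 kg/ha. A visual score from 0 to 9 compares treated with control plants four to five weeks on.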

CASOB (Sicklepod) [1] = assay: Postemergence herbicidal evaluation; format: in vivo, Cassia obtusifolia; conditions: postemergence
Procedure, shortened: as §1

[2] = system: CHEAL (Lambsquarters, Common); assay: Postemergence herbicidal evaluation; format: in vivo, Chenopodium album; conditions: postemergence
Procedure, shortened: as §1

GALAP (Galium) [3] = assay: Postemergence herbicidal evaluation; format: in vivo, Galium aparine; conditions: postemergence
Procedure, shortened: as §1

ECHCG (Barnyardgrass) = assay: Postemergence herbicidal evaluation; format: in vivo, Echinochloa crus-galli; conditions: postemergence
Procedure, shortened: as §1

SETVI (Foxtail, Green) = assay: Postemergence herbicidal evaluation; format: in vivo, Setaria viridis; conditions: postemergence
Procedure, shortened: as §1

[4] = system: GLXMAW (Soybean, Williams); assay: Postemergence herbicidal evaluation; format: in vivo, Glycine max, (L.) Merr. cv Williams; conditions: postemergence
Procedure, shortened: as §1

ORYSAT (Rice, Tebonnet) = assay: Postemergence herbicidal evaluation; format: in vivo, Oryza sativa, (L.) Tebonnet; conditions: postemergence
Procedure, shortened: as §1

CASOB (Sicklepod) [5] = assay: Preemergence herbicidal evaluation; format: in vivo, Cassia obtusifolia; conditions: preemergence, rated 4-5 weeks after treatment, 0-9 scale
Procedure, shortened: (§2)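 Visual 0-9 rating vs control (stand, vigor, malformation, size, chlorosis, overall appearance), scored 4-5 wk after spraying. Seeded soil cups were treated preemergence with compound in aqueous acetone, ~0.0156-0.500 kg/ha equivalent.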

GALAP (Galium) [6] = assay: Preemergence herbicidal evaluation; format: in vivo, Galium aparine; conditions: preemergence, rated 4-5 weeks after treatment, 0-9 scale
Procedure, shortened: as §2

ZEAMX (Corn, Field) = assay: Preemergence herbicidal evaluation; format: in vivo, Zea mays; conditions: preemergence, rated 4-5 weeks after treatment, 0-9 scale
Procedure, shortened: as §2

CYPIR (Rice Flatsedge) = assay: Preemergence weed control under flooded paddy conditions; format: in vivo, Cyperus iria; conditions: rated 3-4 weeks after treatment
Procedure, shortened: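 Visual injury scored 0-9 against control three to four weeks post-treatment, greenhouse-grown. Application: acetone/water (50/50) solutions dosed directly into flood water (1.5-3 cm over silt loam, planted top 0.5 cm), roughly 0.0313 to 0.500 kg/ha active ingredient.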

CYPSE (Flatsedge) [7] = assay: as above; format: in vivo, Cyperus serotinus; conditions: rated 3-4 weeks after treatment
Procedure, shortened: (§3)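 First, seeds or propagules go into the top 0.5 cm of silt loam; next, water is held 1.5 to 3 cm over the soil; then compound (50/50 acetone/water) is pipetted into it at about 0.0313 to 0.500 kg/ha; finally plants are rated visually 0-9 after three to four weeks.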

[8] = system: SAGPY (Arrowhead (Pygmaea)); assay: as above; format: in vivo, Sagittaria pygmaea; conditions: rated 3-4 weeks after treatment
Procedure, shortened: as §3

CYPSE (Flatsedge) [9] = assay: Postemergence weed control under flooded paddy conditions; format: in vivo, Cyperus serotinus; conditions: postemergence weeds, rated 3 to 4 weeks after treatment
Procedure, shortened: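 Herbicidal effect is judged by eye on a 0–9 scale versus control, 3–4 weeks after dosing. Dosing is into flood water kept 1.5–3 cm over the soil, at about 0.0313–0.500 kg/ha in aqueous/acetone 50/50 v/v, on 3–5 cm weeds and 1.5–2.5-leaf rice seedlings.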

Compound `COC(=O)C1(N2C(=O)CSC2=Nc2cc(-n3c(=O)cc(C(F)(F)F)n(C)c3=O)c(F)cc2Cl)CCCCC1` [Compound 81, Methyl 1-{2-{{2-chloro-5-[3,6-dihydro-3-methyl-2,6-dioxo-4-(trifluoromethyl)-1(2H)-pyrimidinyl]-4-fluorophenyl}imino}-4-oxo-3-thiazolidinyl}-cyclohexanecarboxylate] has an AMBEL herbicidal rating (AMBEL (Ragweed, Common); rate 0.0158 kg/ha) of 9.0, an AMBEL herbicidal rating (AMBEL (Ragweed, Common); rate 0.0315 kg/ha) of 9.0 and an AMBEL herbicidal rating (AMBEL (Ragweed, Common); rate 0.0630 kg/ha) of 9.0. It also gave a CASOB herbicidal rating (CASOB (Sicklepod) [1]; rate 0.0158 kg/ha) of 1.0, a CASOB herbicidal rating (CASOB (Sicklepod) [1]; rate 0.0315 kg/ha) of 2.0 and a CASOB herbicidal rating (CASOB (Sicklepod) [1]; rate 0.0630 kg/ha) of 5.0. It also gave a CHEAL herbicidal rating ([2]; rate 0.0158 kg/ha) of 4.0, a CHEAL herbicidal rating ([2]; rate 0.0315 kg/ha) of 3.0 and a GALAP herbicidal rating (GALAP (Galium) [3]; rate 0.0158 kg/ha) of 1.0. For the same compound, the GALAP herbicidal rating (GALAP (Galium) [3]; rate 0.0315 kg/ha) was 5.0, the GALAP herbicidal rating (GALAP (Galium) [3]; rate 0.0630 kg/ha) was 4.0 and the ECHCG herbicidal rating (ECHCG (Barnyardgrass); rate 0.0158 kg/ha) was 1.0. It also gave an ECHCG herbicidal rating (ECHCG (Barnyardgrass); rate 0.0315 kg/ha) of 2.0, an ECHCG herbicidal rating (ECHCG (Barnyardgrass); rate 0.0630 kg/ha) of 6.0 and an SETVI herbicidal rating (SETVI (Foxtail, Green); rate 0.0158 kg/ha) of 1.0. It also gave an SETVI herbicidal rating (SETVI (Foxtail, Green); rate 0.0315 kg/ha) of 1.0, an SETVI herbicidal rating (SETVI (Foxtail, Green); rate 0.0630 kg/ha) of 9.0 and a GLXMAW herbicidal rating ([4]; rate 0.0158 kg/ha) of 6.5. For the same compound, the GLXMAW herbicidal rating ([4]; rate 0.0315 kg/ha) was 6.5, the GLXMAW herbicidal rating ([4]; rate 0.0630 kg/ha) was 6.5 and the ORYSAT herbicidal rating (ORYSAT (Rice, Tebonnet); rate 0.0158 kg/ha) was 4.5. The ORYSAT herbicidal rating (ORYSAT (Rice, Tebonnet); rate 0.0315 kg/ha) was 4.5, the ORYSAT herbicidal rating (ORYSAT (Rice, Tebonnet); rate 0.0630 kg/ha) was 5.5 and the CASOB rating (CASOB (Sicklepod) [5]; 0.0313 kg/ha) was 0.0. For the same compound, the CASOB rating (CASOB (Sicklepod) [5]; 0.1250 kg/ha) was 0.0, the CASOB rating (CASOB (Sicklepod) [5]; 0.2500 kg/ha) was 0.0 and the GALAP rating (GALAP (Galium) [6]; 0.0313 kg/ha) was 0.0. The GALAP rating (GALAP (Galium) [6]; 0.0625 kg/ha) was 0.0, the GALAP rating (GALAP (Galium) [6]; 0.1250 kg/ha) was 0.0 and the GALAP rating (GALAP (Galium) [6]; 0.2500 kg/ha) was 1.0. The ZEAMX rating (ZEAMX (Corn, Field); 0.0313 kg/ha) was 0.0, the ZEAMX rating (ZEAMX (Corn, Field); 0.0625 kg/ha) was 2.0 and the ZEAMX rating (ZEAMX (Corn, Field); 0.1250 kg/ha) was 2.0. The ZEAMX rating (ZEAMX (Corn, Field); 0.2500 kg/ha) was 2.0, the “CYPIR herbicidal effect rating” value (CYPIR (Rice Flatsedge); 0.0625 kg/ha) was 4.0 and the “CYPIR herbicidal effect rating” value (CYPIR (Rice Flatsedge); 0.1250 kg/ha) was 5.0. The “CYPIR herbicidal effect rating” value (CYPIR (Rice Flatsedge); 0.2500 kg/ha) was 5.0, the “CYPSE herbicidal effect rating” value (CYPSE (Flatsedge) [7]; 0.0625 kg/ha) was 0.0 and the “CYPSE herbicidal effect rating” value (CYPSE (Flatsedge) [7]; 0.1250 kg/ha) was 0.0. For the same compound, the “CYPSE herbicidal effect rating” value (CYPSE (Flatsedge) [7]; 0.2500 kg/ha) was 0.0, the “SAGPY herbicidal effect rating” value ([8]; 0.0625 kg/ha) was 0.0 and the “SAGPY herbicidal effect rating” value ([8]; 0.1250 kg/ha) was 0.0. For the same compound, the “SAGPY herbicidal effect rating” value ([8]; 0.2500 kg/ha) was 0.0, the “Herbicidal rating CYPSE” value (CYPSE (Flatsedge) [9]; Rate 0.0625 kg/ha) was 0.0 and the “Herbicidal rating CYPSE” value (CYPSE (Flatsedge) [9]; Rate 0.1250 kg/ha) was 0.0. The “Herbicidal rating CYPSE” value (CYPSE (Flatsedge) [9]; Rate 0.2500 kg/ha) was 0.0.
